Results published in ChEMBL document CHEMBL1201862, “PubChem BioAssay data set” (2004).
Active and inactive are the calls of the source.

How the values were obtained:
[1] = Luminescence-based dose response cell-based high throughput screening assay for cytotoxic compounds using the IEC-6 intestinal epithelial cell line. [Related pubchem assays: 1858 (Summary AID.), 1825 (Counterscreen.), 1907 (Confirmation screen.)]; type: functional
Streptococcus = assay: GAS UMAA2166 growth inhibition – luminescence, BacTiterGlo, counter-screen for streptokinase expression inhibitor project, dose response (AID 1915); type: functional, organism-based;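 note: potency for reduction of bacterial viability or growth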
HEK293 [2] = assay: inhibition of NOD1-driven NF-kB reporter – cell-based, luminescence, uHTS, primary screen (AID 1578); type: functional; conditions: Homo sapiens
[3] = NIH-3T3 fibroblast cytotoxicity, dose response, cytotoxicity control, cell-based, fluorescence, Alamar Blue, secondary assay (AID 2327); type: functional;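 note: NIH-3T3 mouse fibroblasts cultured with fluconazole at 8 µg/mL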
BJ [4] = assay: growth inhibition of engineered Ras-driven BJ cells – cell-based, alamar blue fluorescence, cherrypicked samples, dose response (AID 2631); type: functional; conditions: Homo sapiens;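 note: confirmatory dose-response assay in RAS-dependent BJ fibroblasts engineered with TERT, LT and ST, with cytotoxicity read by fluorescence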
Exodeoxyribonuclease V = Exodeoxyribonuclease V (Escherichia coli (strain K12), UniProt P04993+P07648+P08394); assay: RecBCD inhibition via phage-restricted bacterial growth – absorbance, V66 E. coli, mutant T4 phage, counter-screen for AddAB inhibitor project, dose response (AID 492957); type: functional, cell-based, Escherichia coli str. K-12 substr. MG1655
Chain of Exodeoxyribonuclease V (P04993 whole entry): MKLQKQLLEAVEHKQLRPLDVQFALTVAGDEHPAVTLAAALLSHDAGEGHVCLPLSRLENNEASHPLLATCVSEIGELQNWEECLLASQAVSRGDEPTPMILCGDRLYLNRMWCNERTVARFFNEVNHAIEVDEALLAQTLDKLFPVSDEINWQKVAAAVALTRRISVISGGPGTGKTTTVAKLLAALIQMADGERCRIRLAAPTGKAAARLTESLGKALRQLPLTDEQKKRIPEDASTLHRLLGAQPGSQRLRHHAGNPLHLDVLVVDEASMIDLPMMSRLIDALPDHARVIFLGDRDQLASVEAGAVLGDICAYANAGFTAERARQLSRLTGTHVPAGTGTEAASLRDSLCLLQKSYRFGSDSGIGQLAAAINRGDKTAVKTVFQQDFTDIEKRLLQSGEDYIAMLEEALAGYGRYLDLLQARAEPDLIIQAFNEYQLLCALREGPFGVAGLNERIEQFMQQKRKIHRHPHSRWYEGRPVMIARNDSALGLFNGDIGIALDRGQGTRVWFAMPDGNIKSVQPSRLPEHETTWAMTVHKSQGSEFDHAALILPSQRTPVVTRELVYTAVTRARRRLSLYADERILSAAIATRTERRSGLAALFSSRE
Chain of Exodeoxyribonuclease V (P07648 whole entry): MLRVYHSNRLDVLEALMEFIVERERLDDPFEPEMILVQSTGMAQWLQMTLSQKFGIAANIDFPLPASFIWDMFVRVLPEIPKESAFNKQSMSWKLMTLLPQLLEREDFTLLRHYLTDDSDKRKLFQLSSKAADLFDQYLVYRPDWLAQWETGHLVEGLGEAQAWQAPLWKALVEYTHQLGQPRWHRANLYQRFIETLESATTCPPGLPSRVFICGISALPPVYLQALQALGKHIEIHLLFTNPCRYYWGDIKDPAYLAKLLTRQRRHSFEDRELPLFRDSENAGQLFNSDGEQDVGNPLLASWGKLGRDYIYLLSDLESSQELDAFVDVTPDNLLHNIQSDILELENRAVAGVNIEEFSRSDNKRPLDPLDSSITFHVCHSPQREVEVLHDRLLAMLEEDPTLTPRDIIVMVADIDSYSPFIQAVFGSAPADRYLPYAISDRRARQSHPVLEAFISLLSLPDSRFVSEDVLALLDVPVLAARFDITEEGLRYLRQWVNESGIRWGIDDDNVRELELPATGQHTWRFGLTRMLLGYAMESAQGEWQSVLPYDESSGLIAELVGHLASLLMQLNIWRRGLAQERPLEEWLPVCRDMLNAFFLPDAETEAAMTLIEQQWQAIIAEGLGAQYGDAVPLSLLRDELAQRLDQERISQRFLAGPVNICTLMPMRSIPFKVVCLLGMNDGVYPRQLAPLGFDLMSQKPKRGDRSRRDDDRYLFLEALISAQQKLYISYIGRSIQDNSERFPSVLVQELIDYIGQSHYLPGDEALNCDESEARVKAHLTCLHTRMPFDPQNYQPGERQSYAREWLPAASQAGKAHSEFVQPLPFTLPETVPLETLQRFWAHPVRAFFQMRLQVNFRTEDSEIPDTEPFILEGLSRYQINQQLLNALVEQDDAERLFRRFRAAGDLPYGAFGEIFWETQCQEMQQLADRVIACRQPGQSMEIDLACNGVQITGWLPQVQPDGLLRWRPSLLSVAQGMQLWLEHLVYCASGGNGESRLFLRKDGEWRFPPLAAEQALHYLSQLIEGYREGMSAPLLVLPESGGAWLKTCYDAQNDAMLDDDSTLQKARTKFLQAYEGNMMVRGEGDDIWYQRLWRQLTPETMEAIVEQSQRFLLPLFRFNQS
Chain of Exodeoxyribonuclease V (P08394 whole entry): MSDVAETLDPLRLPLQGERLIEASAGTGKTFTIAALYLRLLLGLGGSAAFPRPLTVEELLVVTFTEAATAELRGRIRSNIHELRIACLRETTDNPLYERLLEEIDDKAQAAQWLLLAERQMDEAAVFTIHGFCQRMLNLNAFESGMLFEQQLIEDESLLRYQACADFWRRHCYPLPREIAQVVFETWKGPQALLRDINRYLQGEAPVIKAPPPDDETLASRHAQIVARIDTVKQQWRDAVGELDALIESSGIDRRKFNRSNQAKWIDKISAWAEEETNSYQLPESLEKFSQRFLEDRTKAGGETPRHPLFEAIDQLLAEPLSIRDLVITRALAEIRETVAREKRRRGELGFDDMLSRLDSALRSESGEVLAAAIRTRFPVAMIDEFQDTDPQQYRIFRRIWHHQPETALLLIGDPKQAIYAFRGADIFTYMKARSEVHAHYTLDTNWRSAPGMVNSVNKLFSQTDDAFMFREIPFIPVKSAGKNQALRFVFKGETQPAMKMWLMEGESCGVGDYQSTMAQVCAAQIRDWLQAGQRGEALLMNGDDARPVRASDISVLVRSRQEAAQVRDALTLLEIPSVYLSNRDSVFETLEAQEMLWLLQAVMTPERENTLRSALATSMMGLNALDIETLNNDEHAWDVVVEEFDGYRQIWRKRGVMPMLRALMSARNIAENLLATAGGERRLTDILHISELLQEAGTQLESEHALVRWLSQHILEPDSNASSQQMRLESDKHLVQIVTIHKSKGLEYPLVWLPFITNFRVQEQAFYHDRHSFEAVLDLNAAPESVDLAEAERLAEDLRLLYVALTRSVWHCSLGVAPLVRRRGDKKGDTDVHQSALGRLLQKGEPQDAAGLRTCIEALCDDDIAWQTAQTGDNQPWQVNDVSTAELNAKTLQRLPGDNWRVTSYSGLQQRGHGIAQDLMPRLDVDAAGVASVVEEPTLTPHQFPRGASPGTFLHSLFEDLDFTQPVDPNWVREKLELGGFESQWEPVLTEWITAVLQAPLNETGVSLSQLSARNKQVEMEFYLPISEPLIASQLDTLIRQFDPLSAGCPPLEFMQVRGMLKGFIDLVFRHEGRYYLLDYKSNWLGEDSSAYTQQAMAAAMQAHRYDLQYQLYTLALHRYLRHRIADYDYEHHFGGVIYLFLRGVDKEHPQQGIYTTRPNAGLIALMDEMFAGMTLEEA

cells [5] = type: functional, cell-based
BJ [6] = assay: BJ-TERT fibroblast viability loss – cell-based, RAS-independent, luminescence, dose response (AID 1933); type: functional; conditions: Homo sapiens
[7] = Luminescence Cell-Based Dose Response HTS to Identify Inhibitors of 5'UTR Stem-Loop Driven Prion Protein mRNA Translation in H4 Neuroglioblastoma Cells. [Related pubchem assays: 1827 (Project Summary), 1813 (Primary HTS)]; type: functional
[8] = alpha-synuclein stem-loop luciferase translation blockers – H4 neuroglioma cells, luminescence, confirmation (AID 1988); type: functional, cell-based
[9] = Counterscreen for AddAB inhibitors: absorbance-based bacterial cell-based high throughput dose response assay for inhibitors of bacterial viability. [Related pubchem assays (depositor defined):AID435030, AID449728, AID449731, AID488942, AID488955, AID488956]; type: functional
BJ [10] = assay: BJ-TERT-LT-ST fibroblast viability loss – cell-based, RAS-independent, luminescence, dose response (AID 1935); type: functional; conditions: Homo sapiens;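 note: BJ fibroblasts immortalized with TERT plus LT and ST oncogenes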
[11] = system: Streptococcus sp. 'group A'; assay: Streptococcus pyogenes SK(-)GAS viability under kanamycin – luminescence, BacTiterGlo, confirmation, counter-screen for streptokinase expression inhibitor project, dose response (AID 1900); type: functional, organism-based
Streptokinase A = biological target: T1, Streptokinase A (Streptococcus pyogenes serotype M1, UniProt P10520); assay: viability-normalized secreted streptokinase activity reduction – plasminogen activation absorbance, OD405, dose response (AID 1914); type: functional, Streptococcus pyogenes M1 GAS;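 note: secreted streptokinase activity via plasminogen activation per viability signal from cell pellet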
T1 sequence (P10520 whole entry): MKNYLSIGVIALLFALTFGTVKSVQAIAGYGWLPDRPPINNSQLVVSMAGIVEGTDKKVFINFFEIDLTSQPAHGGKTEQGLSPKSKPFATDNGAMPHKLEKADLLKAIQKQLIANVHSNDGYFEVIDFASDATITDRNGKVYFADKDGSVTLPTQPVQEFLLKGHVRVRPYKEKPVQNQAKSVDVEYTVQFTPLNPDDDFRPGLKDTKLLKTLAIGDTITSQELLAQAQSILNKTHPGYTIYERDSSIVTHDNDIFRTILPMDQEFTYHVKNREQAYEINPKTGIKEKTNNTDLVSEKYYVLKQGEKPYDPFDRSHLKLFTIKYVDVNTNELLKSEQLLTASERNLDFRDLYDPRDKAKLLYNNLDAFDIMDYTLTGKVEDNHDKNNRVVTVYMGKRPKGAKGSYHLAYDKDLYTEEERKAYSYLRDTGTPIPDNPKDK

[12] = biological target: Nucleotide-binding oligomerization domain-containing protein 2 (Homo sapiens, UniProt Q9HC29); assay: inhibition of NOD2-driven NF-kB reporter – cell-based, luminescence, uHTS, HEK293 (AID 1566); type: functional
HEK293 [13] = assay: cells; type: functional, cell-based; conditions: Homo sapiens
HEK293 [14] = assay: NOD2 signaling inhibitors in MDP-stimulated cells, cell-based, uHTS, luminescence (AID 2001); type: functional; conditions: Homo sapiens
[15] = luciferase reporter signal suppression in cells – H4 neuroglioma cells, luminescence, dose response (AID 1990); type: functional, cell-based
BJ [16] = assay: cells; type: functional, cell-based; conditions: Homo sapiens
INS1 = assay: INS-1E survival protection against cytokine death – cell-based, luminescence, retest, dose response (AID 449756); type: functional; conditions: Rattus norvegicus;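 note: cell death triggered by IL-1 beta plus TNF-alpha plus IFN-gamma mixture; protective hits raise ATP signal compared with cytokine alone wells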
[17] = fluconazole-exposed Candida albicans growth modulators – fluorescence, retest, confirmation (AID 2467); type: functional, cell-based
[18] = DRD fibroblast viability loss – cell-based, non-viral oncogenic, luminescence, dose response (AID 1934); type: functional; conditions: Homo sapiens
cells [19] = type: functional, cell-based; remark: listed apart in the source
[20] = biological target: T2, Heat shock factor protein 1 (Mus musculus, UniProt P38532); assay: decrease of HSF1-responsive luciferase luminescence – cell-based, NIH3T3, dose retest, confirmation (AID 2382); type: functional;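 note: NIH3T3 fibroblasts with HSF1-driven luciferase reporter stressed by proteasome inhibitor MG132; luminescence from HSF1-driven luciferase expression after 8 hours of MG132 stress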
T2 sequence (P38532 whole entry): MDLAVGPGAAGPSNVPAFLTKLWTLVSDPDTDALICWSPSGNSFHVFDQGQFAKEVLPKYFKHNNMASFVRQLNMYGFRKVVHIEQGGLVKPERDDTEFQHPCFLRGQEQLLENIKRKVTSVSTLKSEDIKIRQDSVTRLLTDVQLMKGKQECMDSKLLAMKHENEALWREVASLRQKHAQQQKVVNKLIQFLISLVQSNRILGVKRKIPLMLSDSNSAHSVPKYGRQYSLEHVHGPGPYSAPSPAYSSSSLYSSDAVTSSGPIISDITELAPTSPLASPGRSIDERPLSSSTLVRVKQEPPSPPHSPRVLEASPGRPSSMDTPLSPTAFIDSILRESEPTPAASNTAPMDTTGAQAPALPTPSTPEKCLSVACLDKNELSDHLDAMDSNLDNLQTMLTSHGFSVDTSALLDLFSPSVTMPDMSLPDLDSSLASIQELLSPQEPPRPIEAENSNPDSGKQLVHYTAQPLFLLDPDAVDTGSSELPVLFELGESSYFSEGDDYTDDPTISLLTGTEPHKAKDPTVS

[21] = biological target: Heat shock protein HSP 90-alpha (Homo sapiens, UniProt P07900); type: functional, organism-based
HEK293 [22] = assay: cells; type: functional, cell-based; conditions: Homo sapiens; remark: listed apart in the source
[23] = biological target: Nucleotide-binding oligomerization domain-containing protein 1 (Homo sapiens, UniProt Q9Y239); assay: blockers of NOD1 pathway activity – revised, SAR follow-up (AID 2333); type: functional
HEK293 [24] = assay: cells; conditions: Homo sapiens
Tumor necrosis factor = Tumor necrosis factor (Homo sapiens, UniProt P01375); assay: analog potency on TNFa NF-kB signaling – cell-based, revised, SAR follow-up (AID 2337); type: functional
Chain of Tumor necrosis factor (P01375 whole entry): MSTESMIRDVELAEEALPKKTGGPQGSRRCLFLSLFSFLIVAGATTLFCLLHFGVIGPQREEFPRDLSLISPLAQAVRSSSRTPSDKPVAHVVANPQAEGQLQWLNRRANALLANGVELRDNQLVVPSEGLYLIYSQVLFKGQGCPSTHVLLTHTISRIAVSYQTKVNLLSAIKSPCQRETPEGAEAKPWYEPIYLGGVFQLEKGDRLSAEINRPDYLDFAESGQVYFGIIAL

[25] = biological target: T3, Alkaline phosphatase, tissue-nonspecific isozyme (Homo sapiens, UniProt P05186); assay: TNAP enzyme inhibition by screening hits, dose response, selectivity assay for mouse IAP inhibitor project, biochemical, human TNAP, uHTS hits (AID 488906); type: functional
T3 sequence (P05186 whole entry): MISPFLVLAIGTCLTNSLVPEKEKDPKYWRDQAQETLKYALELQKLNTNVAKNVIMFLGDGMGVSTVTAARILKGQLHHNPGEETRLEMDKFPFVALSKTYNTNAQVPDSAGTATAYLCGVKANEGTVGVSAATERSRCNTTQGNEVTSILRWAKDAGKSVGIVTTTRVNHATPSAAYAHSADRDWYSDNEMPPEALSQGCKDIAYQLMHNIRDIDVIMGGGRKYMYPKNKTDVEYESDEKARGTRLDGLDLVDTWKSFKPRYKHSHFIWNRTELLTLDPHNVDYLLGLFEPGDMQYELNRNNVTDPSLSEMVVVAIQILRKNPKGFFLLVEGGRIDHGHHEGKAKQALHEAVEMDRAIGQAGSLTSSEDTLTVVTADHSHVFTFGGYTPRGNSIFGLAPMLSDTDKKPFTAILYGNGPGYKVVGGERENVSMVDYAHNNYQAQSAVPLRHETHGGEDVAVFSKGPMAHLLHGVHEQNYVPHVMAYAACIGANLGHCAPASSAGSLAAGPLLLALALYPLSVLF

[26] = biological target: T4, Intestinal-type alkaline phosphatase (Homo sapiens, UniProt P09923); assay: inhibition of human intestinal alkaline phosphatase – biochemical, dose response (AID 488876); type: functional
T4 sequence (P09923 whole entry): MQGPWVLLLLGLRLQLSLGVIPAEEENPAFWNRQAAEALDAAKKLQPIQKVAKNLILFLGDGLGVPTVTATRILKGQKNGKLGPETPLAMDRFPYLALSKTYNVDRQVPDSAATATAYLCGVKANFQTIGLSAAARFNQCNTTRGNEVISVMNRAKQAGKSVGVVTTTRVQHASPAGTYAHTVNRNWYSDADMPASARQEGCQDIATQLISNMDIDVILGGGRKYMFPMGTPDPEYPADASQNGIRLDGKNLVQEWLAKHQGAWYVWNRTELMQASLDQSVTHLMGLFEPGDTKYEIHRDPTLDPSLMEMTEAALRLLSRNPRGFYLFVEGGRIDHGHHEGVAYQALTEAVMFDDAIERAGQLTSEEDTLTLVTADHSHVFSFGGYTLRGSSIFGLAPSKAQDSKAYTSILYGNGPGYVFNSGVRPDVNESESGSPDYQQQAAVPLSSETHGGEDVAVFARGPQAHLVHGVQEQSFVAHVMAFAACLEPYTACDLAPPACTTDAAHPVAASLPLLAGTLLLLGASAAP

[27] = biological target: T5, Histone-lysine N-methyltransferase NSD2 (Homo sapiens, UniProt O96028); type: biochemical
T5 sequence (O96028 whole entry): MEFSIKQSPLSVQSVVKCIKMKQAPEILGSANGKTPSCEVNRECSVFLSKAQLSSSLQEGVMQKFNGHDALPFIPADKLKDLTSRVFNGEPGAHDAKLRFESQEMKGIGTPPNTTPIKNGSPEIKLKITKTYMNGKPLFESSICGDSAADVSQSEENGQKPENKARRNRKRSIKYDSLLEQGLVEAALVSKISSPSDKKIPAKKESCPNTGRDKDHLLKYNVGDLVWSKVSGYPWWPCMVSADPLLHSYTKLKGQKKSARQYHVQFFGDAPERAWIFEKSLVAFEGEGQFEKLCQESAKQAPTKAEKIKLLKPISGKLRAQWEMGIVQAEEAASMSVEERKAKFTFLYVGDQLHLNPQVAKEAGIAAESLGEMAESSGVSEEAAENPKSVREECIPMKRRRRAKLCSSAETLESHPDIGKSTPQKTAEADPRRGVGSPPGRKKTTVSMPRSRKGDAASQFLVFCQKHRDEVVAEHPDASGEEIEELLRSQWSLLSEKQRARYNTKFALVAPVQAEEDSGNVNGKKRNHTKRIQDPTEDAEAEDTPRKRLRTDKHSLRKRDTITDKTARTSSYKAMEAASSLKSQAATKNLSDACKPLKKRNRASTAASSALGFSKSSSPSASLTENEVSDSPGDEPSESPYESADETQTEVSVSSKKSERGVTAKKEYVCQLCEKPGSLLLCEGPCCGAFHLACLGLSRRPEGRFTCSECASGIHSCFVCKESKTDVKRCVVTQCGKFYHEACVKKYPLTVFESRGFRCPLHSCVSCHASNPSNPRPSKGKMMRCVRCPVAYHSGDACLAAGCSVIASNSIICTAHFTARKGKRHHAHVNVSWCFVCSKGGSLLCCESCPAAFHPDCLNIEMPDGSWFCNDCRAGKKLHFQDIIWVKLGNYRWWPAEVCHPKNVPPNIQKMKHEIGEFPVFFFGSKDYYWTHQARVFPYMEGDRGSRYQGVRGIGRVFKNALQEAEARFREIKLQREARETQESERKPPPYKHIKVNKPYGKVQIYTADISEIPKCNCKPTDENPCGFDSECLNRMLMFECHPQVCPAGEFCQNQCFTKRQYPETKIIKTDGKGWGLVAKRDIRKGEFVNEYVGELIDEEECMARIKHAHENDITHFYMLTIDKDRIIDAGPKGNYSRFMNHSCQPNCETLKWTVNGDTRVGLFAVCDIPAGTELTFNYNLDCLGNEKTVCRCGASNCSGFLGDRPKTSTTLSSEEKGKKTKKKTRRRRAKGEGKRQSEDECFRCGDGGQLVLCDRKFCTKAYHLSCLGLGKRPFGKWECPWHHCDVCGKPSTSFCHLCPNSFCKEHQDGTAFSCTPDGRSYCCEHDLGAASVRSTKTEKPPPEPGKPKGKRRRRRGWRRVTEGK

[28] = biological target: Intestinal-type alkaline phosphatase (Mus musculus, UniProt P24822); assay: PubChem AID 488785; type: functional
Chain of Intestinal-type alkaline phosphatase (Mus musculus, UniProt P24822) (P24822 whole entry): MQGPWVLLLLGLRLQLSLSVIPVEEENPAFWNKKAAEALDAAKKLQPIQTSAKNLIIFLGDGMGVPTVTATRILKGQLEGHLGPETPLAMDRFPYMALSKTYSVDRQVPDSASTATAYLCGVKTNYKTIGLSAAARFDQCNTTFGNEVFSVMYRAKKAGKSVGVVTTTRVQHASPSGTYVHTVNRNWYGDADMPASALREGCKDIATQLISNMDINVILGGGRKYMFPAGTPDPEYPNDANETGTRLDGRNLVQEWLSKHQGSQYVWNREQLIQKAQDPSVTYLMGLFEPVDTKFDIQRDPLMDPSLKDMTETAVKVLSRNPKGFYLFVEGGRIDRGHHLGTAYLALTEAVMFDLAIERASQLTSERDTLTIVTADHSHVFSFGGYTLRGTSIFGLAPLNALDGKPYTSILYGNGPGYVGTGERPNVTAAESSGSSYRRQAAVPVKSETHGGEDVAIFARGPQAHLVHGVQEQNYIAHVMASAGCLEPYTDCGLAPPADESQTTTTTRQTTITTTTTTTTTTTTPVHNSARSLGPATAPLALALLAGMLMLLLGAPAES

[29] = biological target: T4, Intestinal-type alkaline phosphatase; assay: Dose Response confirmation of uHTS hits from a small molecule inhibitors of human intestinal alkaline phosphatase via a luminescent assay. [Related pubchem assays (depositor defined):AID2544, AID2574]; type: functional

SMILES: Cc1ccc(C(C)C)c(OCc2ccc(C(=O)N/N=C/c3cccc(O)c3O)cc2)c1
- IC50 [1]: 1.67 µM (active)
- EC50 (Streptococcus): 5.32 µM (active)
- EC50 (HEK293 [2]): > 20 µM (inactive)
- EC50 [3]: 3.17 µM (active)
- EC50 (BJ [4]): 0.533 µM (active)
- IC50 (Exodeoxyribonuclease V): > 119 µM (inactive)
- EC50 (cells [5]): 6.18 µM (active)
- EC50 (BJ [6]): 9.95 µM (active)
- EC50 [7]: 0.979 µM (active)
- EC50 [8]: 0.976 µM (active)
- IC50 [9]: > 119 µM (inactive)
- EC50 (BJ [10]): 7.23 µM (active)
- EC50 [11]: 1.87 µM (active)
- EC50 (Streptokinase A): > 150 µM (not active)
- EC50 [12]: > 20 µM (inactive)
- IC50 (HEK293 [13]): 1.16 µM (active)
- IC50 (HEK293 [14]): > 20 µM (inactive)
- EC50 [15]: 0.54 µM (active)
- EC50 (BJ [16]): 2.58 µM (active)
- AC50 (INS1): 0.832 µM (active)
- EC50 [17]: 0.928 µM (active)
- EC50 [18]: 4.88 µM (active)
- EC50 (cells [19]): > 350 µM (not active)
- EC50 [20]: 1.24 µM (active)
- AC50 [21]: 4.01 µM (active)
- IC50 (HEK293 [22]): > 20 µM (inactive)

SMILES: O=C(CSc1nc(O)c2c(-c3ccccc3)csc2n1)NC1CCCCC1
- IC50 [23]: > 20 µM (inactive)
- IC50 (HEK293 [24]): > 20 µM (inactive)
- IC50 (Tumor necrosis factor): > 20 µM (inactive)

SMILES: CN1C(=O)NC(=O)/C(=C/c2ccc([N+](=O)[O-])o2)C1=O
- IC50 [25]: > 100 µM (inactive)
- IC50 [26]: > 100 µM (inactive)
- AC50 [27]: 15.4 µM (active)
- IC50 [28]: 43.8 µM (active)

SMILES: O=c1c(O[C@@H]2O[C@H](CO)[C@@H](O)[C@H](O)[C@H]2O)c(-c2ccc(O)c(O)c2)oc2cc(O)cc(O)c12 [ISOQUERCETIN]
- IC50 [25]: 14 µM (active)
- IC50 [26]: 8.96 µM (active)
- IC50 [28]: 1.66 µM (active)
- IC50 [29]: 5.25 µM (active)

SMILES: Cc1ccc(NC(=O)Cn2cnc3ccccc32)cc1C
- IC50 (Exodeoxyribonuclease V): > 119 µM (inactive)
- IC50 [9]: > 119 µM (inactive)
